According to patent publication US7405228B2, “Antibacterial cyano-(substituted)-methylenepiperidinophenyl oxazolidinones targeting multiple ribonucleoprotein sites” (Wockhardt Limited, priority 2002, dated 2008):
Converted amounts (≈) assume the structure as drawn.

Assays:
[1] = system: MRSA 032; assay: MIC determination, linezolid sensitive MRSA 032 (MRSA-32); type: cell-based; settings: Staphylococcus aureus, read-out: MIC MRSA 32
Protocol: Infecting doses of organisms given by intraperitoneal route in 5% hog gastric mucin were 10^3-10^4 CFU (colony forming units)/animal for SPN 6303 and 10^8 CFU/animal for MRSA-32. In case of MRSA-32, Linezolid was administered by oral route, 1 and 4 h post infection, BID (twice a day) for 1 day and for SPN 6303 BID for 2 days. […] MICs of Methicillin Resistant Staphylococcus aureus-32 Linezolid resistant (MRSA-32 LNZR), S. pneumoniae 744 Linezolid resistant (SPN 744 LNZR) and parent Linezolid sensitive strains MRSA-32 and SPN 6303 were determined for Linezolid by NCCLS agar dilution method.
Cultures were further diluted 1:10 in Mueller Hinton broth. Using Denley's mutipoint inoculator, 10^4 cells were deposited on Mueller Hinton agar (Difco) containing range of 2 fold dilutions of test compounds. […] MIC is defined as minimum drug concentration that inhibits test organisms. For determining MIC of test compounds against Streptococcus pneumoniae, Mueller Hinton agar containing 5% sheep blood was employed.

[2] = system: SPN 49619; assay: MIC determination, linezolid sensitive SPN 49619; type: cell-based; settings: Streptococcus pneumoniae; linezolid sensitive strain, Table 3

melting point	SMILES	MIC [1]	MIC [2]
	CC(C#N)=C1CCN(c2ccc(N3C[C@H](CNC(=O)C(Cl)Cl)OC3=O)cc2F)CC1 [Example 79, (S)-N-{3-[4-(4-(1-cyanoethylidene)-piperidin-1-yl)-3-fluorophenyl]-2-oxo-oxazolidin-5-ylmethyl}-dichloroacetamide]	0.8 µg/mL (≈ 1.76 µM)	0.8 µg/mL (≈ 1.76 µM)
137 to 138 °C	CC(C#N)=C1CCN(c2ccc(N3C[C@H](COc4ccon4)OC3=O)cc2F)CC1 [Example 83, (R)-3-{3-[4-(4-(1-cyanoethylidene)-piperidin-1-yl)-3-fluorophenyl]-2-oxo-oxazolidin-5-ylmethyloxy}-iso-oxazole]		
148 to 150 °C	CC(=O)NC[C@H]1CN(c2ccc(N3CC/C(=C(/C)C#N)C(F)C3)c(F)c2)C(=O)O1 (stereo partly drawn) [Example 85, (S)-N-{3-[4-(4-(1-cyanoethylidene)-3-fluoropiperidin-1-yl)-3-fluorophenyl]-2-oxo-oxazolidin-5-ylmethyl}-acetamide]		
148 to 150 °C	CC(=O)NC[C@H]1CN(c2ccc(N3CC/C(=C(\C)C#N)C(F)C3)c(F)c2)C(=O)O1 (stereo partly drawn) [Example 87, Z-(S)-N-{3-[4-(4-(1-cyanoethylidene)-3-fluoropiperidin-1-yl)-3-fluorophenyl]-2-oxo-oxazolidin-5-ylmethyl}-acetamide]		
150 to 152 °C	CCC(C#N)=C1CCN(c2ccc(N3C[C@H](CNC(=O)C(Cl)(Cl)Cl)OC3=O)cc2F)CC1 [Example 91, (S)-N-{3-[4-(4-(1-cyanopropylidene)-piperidin-1-yl)-3-fluorophenyl]-2-oxo-oxazolidin-5-ylmethyl}-trichloroacetamide]		
200 to 203 °C	CCC(C#N)=C1CCN(c2ccc(N3C[C@H](CNC(=O)CBr)OC3=O)cc2F)CC1 [Example 92, (S)-N-{3-[4-(4-(1-cyanopropylidene)-piperidin-1-yl)-3-fluorophenyl]-2-oxo-oxazolidin-5-ylmethyl}-bromoacetamide]		
196 to 198 °C	CC(=O)NC[C@H]1CN(c2ccc(N3CCC(=C(C#N)n4ccnc4)CC3)c(F)c2)C(=O)O1 [Example 102, (S)-N-{3-[4-(4-(1-cyano-1-(imidazol-1-yl)-methylidene)-piperidin-1-yl)-3-fluorophenyl]-2-oxo-oxazolidin-5-ylmethyl}-acetamide]		
204 to 206 °C	CC(=O)NC[C@H]1CN(c2ccc(N3CCC(=C(C#N)n4ccnc4C)CC3)c(F)c2)C(=O)O1 [Example 103, (S)-N-{3-[4-(4-(1-cyano-1-(2-methyl-imidazol-1-yl)-methylidene)-piperidin-1-yl)-3-fluorophenyl]-2-oxo-oxazolidin-5-ylmethyl}-acetamide]		
194 to 196 °C	CC(=O)NC[C@H]1CN(c2ccc(N3CCC(=C(C#N)n4cncn4)CC3)c(F)c2)C(=O)O1 [Example 104, (S)-N-{3-[4-(4-(1-cyano-1-(1,2,4-triazol-1-yl)-methylidene)-piperidin-1-yl)-3fluorophenyl]-2-oxo-oxazolidin-5-ylmethyl}-acetamide]		
	CC(=O)NC[C@H]1CN(c2ccc(N3CCC(=C(C#N)c4cccs4)CC3)c(F)c2)C(=O)O1 [Example 105, (S)-N-{3-[4-(4-(1-cyano-1-(thiophen-2-yl)-methylidene)-piperidin-1-yl)-3-fluorophenyl]-2-oxo-oxazolidin-5-ylmethyl}-acetamide]	0.8 µg/mL (≈ 1.76 µM)	0.8 µg/mL (≈ 1.76 µM)
192 to 194 °C	CC(=O)NC[C@H]1CN(c2ccc(N3CCC(=C(C#N)CCO)CC3)c(F)c2)C(=O)O1 [Example 113, (S)-N-{3-[4-(4-(1-cyano-3-hydroxy-propylidene)-piperidin-1-yl)-3-fluorophenyl]-2-oxo-oxazolidin-5-ylmethyl}-acetamide]		
	CC(=S)NC[C@H]1CN(c2ccc(N3CCC(=C(C#N)c4ccccn4)CC3)c(F)c2)C(=O)O1 [Example 118, (S)-N-{3-[4-(4-(1-cyano-1-(pyridin-2-yl)-methylidene)-piperidin-1-yl)-3-fluorophen]-2-oxo-oxazolidin-5-ylmethyl}-thioacetamide]	0.8 µg/mL (≈ 1.72 µM)	0.4 µg/mL (≈ 0.859 µM)
	CC(=S)NC[C@H]1CN(c2ccc(N3CCC(=C(C#N)C#N)CC3)c(F)c2)C(=O)O1 [Example 119, (S)-N-{3-[4-(4-(1,1-dicyano-methylidene)-piperidin-1-yl)-3-fluorophenyl]-2-oxo-oxazolidin-5-ylmethyl}-thioacetamide]	0.4 µg/mL (≈ 0.967 µM)	0.8 µg/mL (≈ 1.93 µM)
110 to 112 °C	N#CCC1CCN(c2ccc(N3C[C@H](CO)OC3=O)cc2)CC1 [Example 124, (R)-{3-[4-(4-cyanomethyl-piperidin-1-yl)-phenyl]-2-oxo-oxazolidin-5-ylmethyl}-alcohol]		
114 to 116 °C	CS(=O)(=O)OC[C@H]1CN(c2ccc(N3CCC(CC#N)CC3)cc2)C(=O)O1 [Example 125, (R)-{3-[4-(4-cyanomethyl-piperidin-1-yl)-phenyl]-2-oxo-oxazolidin-5-ylmethyl}-methanesulphonate]		
136 to 138 °C	CC(=O)NC[C@H]1CN(c2ccc(N3CCC(C(C#N)COS(C)(=O)=O)CC3)c(F)c2)C(=O)O1 (stereo partly drawn) [Example 134, (S)-N-{3-[4-(4-(1-cyano-2-methanesulphonyloxy)-ethylpiperidin-1-yl)-3-fluorophenyl]-2-oxo-oxazolidin-5-ylmethyl}-acetamide]		
210 to 212 °C	CC(=O)NC[C@H]1CN(c2ccc(N3CCC(C(C#N)n4ccnc4)CC3)c(F)c2)C(=O)O1 (stereo partly drawn) [Example 136, (S)-N-{3-[4-(4-(1-cyano-1-(imidazol-1-yl))-methylpiperidin-1-yl)-3-fluorophenyl]-2-oxo-oxazolidin-5-ylmethyl}-acetamide]		
204 to 206 °C	COC(=O)c1cn(C[C@H]2CN(c3ccc(N4CCC(C(C#N)CO)CC4)c(F)c3)C(=O)O2)nn1 (stereo partly drawn) [Example 150, (S)-1-{3-[4-(4-(1-cyano-2-hydroxy)-ethylpiperidin-1-yl)-3-fluorophenyl]-2-oxo-oxazolidin-5-ylmethyl}-4-methoxycarbonyl-1,2,3-triazole]		
170 to 172 °C	CCOC(=O)c1cn(C[C@H]2CN(c3ccc(N4CCC(C(C#N)CO)CC4)c(F)c3)C(=O)O2)nn1 (stereo partly drawn) [Example 151, (S)-1-{3-[4-(4-(1-cyano-2-hydroxy)-ethylpiperidin-1-yl)-3-fluorophenyl]-2-oxo-oxazolidin-5-ylmethyl}-4-ethoxycarbonyl-1,2,3-triazole]		
76 to 78 °C	CCOC(=O)c1cnnn1C[C@H]1CN(c2ccc(N3CCC(C(C#N)CO)CC3)c(F)c2)C(=O)O1 (stereo partly drawn) [Example 152, (S)-1-{3-[4-(4-(1-cyano-2-hydroxy)-ethylpiperidin-1-yl)-3-fluorophenyl]-2-oxo-oxazolidin-5-ylmethyl}-5-ethoxycarbonyl-1,2,3-triazole]		
146 to 148 °C	N#CC(CO)C1CCN(c2ccc(N3C[C@H](COc4ccon4)OC3=O)cc2F)CC1 (stereo partly drawn) [Example 153, (R)-3-{3-[4-(4-(1-cyano-2-hydroxy)-ethylpiperidin-1-yl)-3-fluorophenyl]-2-oxo-oxazolidin-5-ylmethyloxy}-iso-oxazole]		
144 to 146 °C	CS(=O)(=O)OC[C@H]1CN(c2ccc(N3CCC(C(C#N)CO)CC3)c(F)c2)C(=O)O1 (stereo partly drawn) [Example 154, (R)-{3-[4-(4-(1-cyano-2-hydroxy)-ethylpiperidin-1-yl)-3-fluorophenyl]-2-oxo-oxazolidin-5-ylmethyl}-methanesulphonate]		
108 to 110 °C	CS(=O)(=O)OC[C@H]1CN(c2ccc(N3CCC(C(C#N)C(=O)O)CC3)c(F)c2)C(=O)O1 (stereo partly drawn) [Example 155, (R)-{3-[4-(4-(1-Cyano-1-hydroxycarbonyl)-methylpiperidin-1-yl)-3-fluorophenyl]-2-oxo-oxazolidin-5-ylmethyl}-methanesulphonate]		
64 to 66 °C	CS(=O)(=O)OC[C@H]1CN(c2ccc(N3CCC(C(C#N)c4nccs4)CC3)c(F)c2)C(=O)O1 (stereo partly drawn) [Example 157, (R)-{3-[4-(4-(1-cyano-1-(1,3-thiazol-2-yl))-methylpiperidin-1-yl)-3-fluorophenyl]-2-oxo-oxazolidin-5-ylmethyl}-methanesulphonate]		
220 to 222 °C	CS(=O)(=O)OC[C@H]1CN(c2ccc(N3CCC(C(C#N)C(N)=O)CC3)c(F)c2)C(=O)O1 (stereo partly drawn) [Example 158, (R)-{3-[4-(4-(1-cyano-1-carboxamido)-methylpiperidin-1-yl)-3-fluorophenyl]-2-oxo-oxazolidin-5-ylmethyl}-methanesulphonate]		
149 to 150 °C	CC(=O)NC[C@H]1CN(c2ccc(N3CC=C(CC#N)C(C)C3)c(F)c2)C(=O)O1 (stereo partly drawn) [Example 161, (S)-N-{3-[4-(4-cyanomethyl-3-methyl-4,5-dehydropiperidin-1-yl)-3-fluorophenyl]-2-oxo-oxazolidin-5-ylmethyl}-acetamide]		
146 to 148 °C	CC(C)COC(=O)NC[C@H]1CN(c2ccc(N3CC=C(CC#N)C(F)C3)c(F)c2)C(=O)O1 (stereo partly drawn) [Example 163, (S)-N-{3-[4-(4-cyanomethyl-3-fluoro-4,5-dehydropiperidin-1-yl)-3-fluorophenyl]-2-oxo-oxazolidin-5-ylmethyl}-isobutylcarbamate]		
